Like-named read-outs stand apart in the source and are kept apart here.
Key:
[1] = biological target: GDP-bound NRAS wild-type protein (Homo sapiens, UniProt P01111); assay: Binding to NRAS by surface plasmon resonance (SPR), KD and KD ratio to KRAS
In short: (§1)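 SPR, 30°C: Avi-biotin RAS·GDP captured via Biotin CAPture (~100–300 RU); running buffer HBS pH 7.4, 1 mM DTT, 10 mM MgCl2, 0.01% Tween 20, 10 µM GDP, 4% DMSO. Single-cycle kinetics, 100 µL/min, 75 s injections; 1:1 model → KD.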

[2] = biological target: HRAS wild-type protein (Homo sapiens, UniProt P01112); assay: Binding to HRAS by surface plasmon resonance (SPR), KD and KD ratio to KRAS
In short: as §1

[3] = test system: human lung cancer strain NCI-H441; assay: NCI-H441 cell proliferation inhibitory activity (CellTiter-Glo, 4 days); type: cell-based; settings: read-out: NCl-H441 IC50
In short: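 Proliferation was scored by […] measured after the reagent was added to cultures kept at 37°C in 5% carbon dioxide.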

[4] = biological target: GDP-bound KRAS wild-type protein (Homo sapiens, UniProt P01116); assay: Binding to KRAS by surface plasmon resonance (SPR), dissociation constant KD
In short: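 Captured GDP-RAS (~100–300 RU) was exposed to increasing compound concentrations, 75 s per step, in running buffer with 10 µM GDP, 10 mM MgCl2 and 4% DMSO at pH 7.4.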

[5] = ratio of KD for GDP-bound NRAS wild-type protein to KD for KRAS
[6] = ratio of KD for HRAS wild-type protein to KD for KRAS
[7] = ratio of KD with respect to GDP-bound NRAS wild-type protein to KD with respect to KRAS
[8] = ratio of KD with respect to HRAS wild-type protein to KD with respect to KRAS
[9] = 50% proliferation inhibitory concentration, four days
[10] = Single Cycle Kinetics, 1:1 binding model

Sequence of GDP-bound NRAS wild-type protein (P01111 whole entry): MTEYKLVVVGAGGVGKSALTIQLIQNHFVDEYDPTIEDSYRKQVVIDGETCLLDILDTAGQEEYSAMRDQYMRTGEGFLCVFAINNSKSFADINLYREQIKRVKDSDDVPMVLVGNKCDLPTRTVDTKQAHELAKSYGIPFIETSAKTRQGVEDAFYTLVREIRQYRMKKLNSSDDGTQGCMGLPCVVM
Sequence of GDP-bound KRAS wild-type protein (P01116 1-188 isoform P01116-2): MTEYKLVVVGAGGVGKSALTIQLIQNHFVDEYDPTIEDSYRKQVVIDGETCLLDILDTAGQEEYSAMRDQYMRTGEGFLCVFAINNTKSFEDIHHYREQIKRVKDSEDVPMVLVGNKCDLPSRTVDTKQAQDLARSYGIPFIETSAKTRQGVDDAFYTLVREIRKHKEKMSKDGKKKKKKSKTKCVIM
Sequence of HRAS wild-type protein (P01112 whole entry): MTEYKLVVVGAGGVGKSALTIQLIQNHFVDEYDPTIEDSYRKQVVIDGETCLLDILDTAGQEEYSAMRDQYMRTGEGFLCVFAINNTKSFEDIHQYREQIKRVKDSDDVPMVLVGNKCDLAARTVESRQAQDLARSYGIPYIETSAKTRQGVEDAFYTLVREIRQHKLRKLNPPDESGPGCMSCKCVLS

| IC50 ([3]; NCI-H441 cells, 4 days) [nM] | Kd ([4]; 1:1 binding model) [nM] | IC50 [3, 9] [nM] | Kd [4, 10] [nM] | Kd ([4]; Single Cycle Kinetics) [nM] | Compound | NRAS /KRAS [1, 5] | HRAS /KRAS [2, 6] | NRAS /KRAS [1, 7] | HRAS /KRAS [2, 8] |
| --- | --- | --- | --- | --- | --- | --- | --- | --- | --- |
| 52 | 0.97 | – | – | – | CCC[C@H]1C(=O)N[C@@H]([C@@H](C)CC)C(=O)N(C)CC(=O)N(C)[C@H]2C/C=C\CCN(C2=O)[C@@H](Cc2ccc(C)cc2)C(=O)N(C)CC(=O)N[C@@H](CCc2ccc(C(F)(F)F)c(OC)c2)C(=O)N2C[C@H](OCC)C[C@H]2C(=O)NC2(CC(C)(C)C2)C(=O)N(C)[C@@H](CC2CCC2)C(=O)N(C)[C@H](C(=O)N(C)C)CC(=O)N1C [PP2753] | A (a compound having 10 or more and less than 20 is denoted as A) | B (a compound having 3 or more and less than 10 is denoted as B) | – | – |
| – | – | 24 | 0.11 | – | CC[C@H](C)[C@@H]1NC(=O)[C@H](CC(C)C)N(C)C(=O)C[C@@H](C(=O)N(C)C)N(C)C(=O)[C@H](C2CCCC2)N(C)C(=O)C2(CCC2)NC(=O)[C@@H]2CCCN2C(=O)[C@H](CCc2cc(F)c(C(F)(F)F)c(F)c2)NC(=O)CN(C)C(=O)[C@H](Cc2ccc(C(F)(F)F)cc2)N2CC/C=C\C[C@@H](C2=O)N(C)C(=O)CN(C)C1=O [PP1272] | – | – | A (a compound having 10 or more and less than 20 is denoted as A) | A (a compound having 10 or more and less than 20 is denoted as A) |
| 84.8 | 1.5 | – | – | – | CCC[C@H]1C(=O)N[C@@H]([C@@H](C)CC)C(=O)N(C)CC(=O)N(C)[C@H]2C/C=C\CCN(C2=O)[C@@H](CC2CCC(F)(F)CC2)C(=O)N(C)CC(=O)N[C@@H](CCc2ccc(C(F)(F)F)c(OC)c2)C(=O)N2C[C@@H](C)C[C@H]2C(=O)NC2(CC(C)(C)C2)C(=O)N(C)[C@@H](C(CC)CC)C(=O)N(C)[C@H](C(=O)N(C)C)CC(=O)N1C [PP2497] | A (a compound having 10 or more and less than 20 is denoted as A) | A (a compound having 10 or more and less than 20 is denoted as A) | – | – |
| 91.3 | 2.6 | – | – | – | CCC(CC)[C@H]1C(=O)N(C)[C@H](C(=O)N(C)C)CC(=O)N(C)[C@@H](COC)C(=O)N[C@@H]([C@@H](C)CC)C(=O)N(C2CC2)CC(=O)N(C)[C@H]2C/C=C\CCN(C2=O)[C@@H](Cc2ccc(C)cc2)C(=O)N(C)CC(=O)N[C@@H](CCc2ccc(Cl)c(Cl)c2)C(=O)N2C[C@H](OC(C)C)C[C@H]2C(=O)NC2(CC(C)(C)C2)C(=O)N1C [PP2509] | AA (a compound having 20 or more is denoted as AA) | A (a compound having 10 or more and less than 20 is denoted as A) | – | – |
| 2.6 | – | – | – | 0.03 | C#CC[C@H]1C(=O)N[C@@H]([C@@H](C)CC)C(=O)N(C)CC(=O)N(C)[C@H]2C/C=C\CCN(C2=O)[C@@H](Cc2ccc(C(F)(F)F)cc2)C(=O)N(C)CC(=O)N[C@@H](CCc2ccc(C(F)(F)F)c(OC)c2)C(=O)N2C[C@H](OCC)C[C@H]2C(=O)N(C)C2(CCC2)C(=O)N(C)[C@@H](C2CCCC2)C(=O)N(C)[C@H](C(=O)N(C)C)CC(=O)N1C [PP3230] | A (a compound having 10 or more and less than 20 is denoted as A) | A (a compound having 10 or more and less than 20 is denoted as A) | – | – |
| 24.3 | – | – | – | 3 | CCCO[C@@H]1C[C@H]2C(=O)NC3(CC(C)(C)C3)C(=O)N(C)[C@@H](C3CCCC3)C(=O)N(C)[C@H](C(=O)N(C)CC)CC(=O)N(C)[C@@H](COCC)C(=O)N[C@@H]([C@@H](C)CC)C(=O)N3C[C@@H](C)C[C@H]3C(=O)N(C)[C@H]3C/C=C\CCN(C3=O)[C@@H](Cc3ccc(C(F)(F)F)cc3)C(=O)N(C)CC(=O)N[C@@H](CCc3cc(F)c(C(F)(F)F)c(F)c3)C(=O)N2C1 [PP3472] | A (a compound having 10 or more and less than 20 is denoted as A) | A (a compound having 10 or more and less than 20 is denoted as A) | – | – |
| 9.8 | – | – | – | 0.46 | C#CC[C@H]1C(=O)N[C@@H]([C@@H](C)CC)C(=O)N(C)CC(=O)N(C)[C@H]2C/C=C\CCN(C2=O)[C@@H](Cc2ccc(C)cc2)C(=O)N(C)CC(=O)N[C@@H](CCc2ccc(C(F)(F)F)c(OC)c2)C(=O)N2C[C@H](OCC)C[C@H]2C(=O)OC2(CCC2)C(=O)N(C)[C@@H](C2CCCC2)C(=O)N(C)[C@H](C(=O)N(C)C)CC(=O)N1C [PP3391] | B (a compound having 3 or more and less than 10 is denoted as B) | B (a compound having 3 or more and less than 10 is denoted as B) | – | – |
| 40.5 | – | – | – | 1.5 | CCCO[C@@H]1C[C@H]2C(=O)NC3(CC(C)(C)C3)C(=O)N(C)[C@@H](C3CCCC3)C(=O)N(C)[C@H](C(=O)N(C)CC)CC(=O)N(C)[C@@H](COCC)C(=O)N[C@@H]([C@@H](C)CC)C(=O)N3CCC[C@H]3C(=O)N(C)[C@H]3C/C=C\CCN(C3=O)[C@@H](Cc3ccc(C(F)(F)F)cc3)C(=O)N(C)CC(=O)N[C@@H](CCc3ccc(C(F)(F)F)c(Cl)c3)C(=O)N2C1 [PP3405] | A (a compound having 10 or more and less than 20 is denoted as A) | A (a compound having 10 or more and less than 20 is denoted as A) | – | – |
| – | – | 466 | 8.5 | – | CC[C@H](C)[C@@H]1NC(=O)[C@H](CC2CC2)N(C)C(=O)C[C@@H](C)N(C)C(=O)[C@H](C2CCCC2)N(C)C(=O)C2(CCC2)NC(=O)[C@H](CC(F)F)N(C)C(=O)[C@H](CCc2cc(F)c(C(F)(F)F)c(F)c2)NC(=O)CN(C)C(=O)[C@H](Cc2ccc(C(F)(F)F)cc2)N2CC/C=C\C[C@@H](C2=O)N(C)C(=O)CN(C)C1=O [PP1405] | – | – | A (a compound having 10 or more and less than 20 is denoted as A) | A (a compound having 10 or more and less than 20 is denoted as A) |
| 28.8 | – | – | – | 0.82 | CCCO[C@@H]1C[C@H]2C(=O)NC3(CC(C)(C)C3)C(=O)N(C)[C@@H](C3CCCC3)C(=O)N(C)[C@H](C(=O)N(C)CC)CC(=O)N(C)[C@@H](COCC)C(=O)N[C@@H]([C@@H](C)CC)C(=O)N(C3CC3)CC(=O)N(C)[C@H]3C/C=C\CCN(C3=O)[C@@H](Cc3ccc(C)cc3)C(=O)N(C)CC(=O)N[C@@H](CCc3cc(F)c(C(F)(F)F)c(F)c3)C(=O)N2C1 [PP3458] | A (a compound having 10 or more and less than 20 is denoted as A) | A (a compound having 10 or more and less than 20 is denoted as A) | – | – |
| 4.6 | – | – | – | 0.037 | CCC[C@H]1C(=O)N[C@@H](C2CCCC2)C(=O)N(C)CC(=O)N(C)[C@H]2C/C=C\CCN(C2=O)[C@@H](Cc2ccc(C)cc2)C(=O)N(C)CC(=O)N[C@@H](CCc2ccc(C(F)(F)F)c(OC)c2)C(=O)N2CC3(CC3)C[C@H]2C(=O)N(C)C2(CCC2)C(=O)N(C)[C@@H](CC(C)(C)C)C(=O)N(C)[C@H](C(=O)N(C)C)CC(=O)N1C [PP3320] | B (a compound having 3 or more and less than 10 is denoted as B) | B (a compound having 3 or more and less than 10 is denoted as B) | – | – |
| – | – | 85.2 | 1 | – | CCO[C@@H]1C[C@H]2C(=O)NC3(CCC3)C(=O)N(C)[C@@H](C3CCCC3)C(=O)N(C)[C@H](C(=O)N(C)C)CC(=O)N(C)[C@@H](Cc3ccc(Cl)c(Cl)c3)C(=O)N[C@@H]([C@@H](C)CC)C(=O)N(C)CC(=O)N(C)[C@H]3CCCCCN(C3=O)[C@@H](Cc3ccc(C(F)(F)F)cc3)C(=O)N(C)CC(=O)N[C@@H](CCc3cc(F)c(C(F)(F)F)c(F)c3)C(=O)N2C1 [PP1174] | – | – | B (a compound having 3 or more and less than 10 is denoted as B) | B (a compound having 3 or more and less than 10 is denoted as B) |
